Experimental data as given in patent publication US12122816B2, “Long acting peptide tyrosine tyrosine (PYY) analogs and methods of use” (Intarcia Therapeutics, Inc., priority 2020, dated 2024).
pEC50: −log10 of the molar value. Starred links: 1 amine or outer side, 2 acyl side, 3 side chain; linkers in the order of their positions; H or OH if unused. Residues, ends and D or L forms follow the SMILES beside them. Groups on a side chain read outwards from the residue. *: point of attachment. C20 diacid = O=C(O)CCCCCCCCCCCCCCCCCCC(=O)*; γGlu = O=C(O)[C@H](CCC(=O)[*:2])N[*:1]

Legend:
human Y2 receptor = biological target: T1, human Y2 receptor (Homo sapiens, UniProt P49146); test: NPY receptor functional assay (cAMP, HEK-CNG cells, ACTOne membrane potential dye); format: cell-based; settings: NPY2R pEC50, HEK-CNG cells; standard PYY(3-36); species (human or rat) not given
T1 sequence (P49146 1-381): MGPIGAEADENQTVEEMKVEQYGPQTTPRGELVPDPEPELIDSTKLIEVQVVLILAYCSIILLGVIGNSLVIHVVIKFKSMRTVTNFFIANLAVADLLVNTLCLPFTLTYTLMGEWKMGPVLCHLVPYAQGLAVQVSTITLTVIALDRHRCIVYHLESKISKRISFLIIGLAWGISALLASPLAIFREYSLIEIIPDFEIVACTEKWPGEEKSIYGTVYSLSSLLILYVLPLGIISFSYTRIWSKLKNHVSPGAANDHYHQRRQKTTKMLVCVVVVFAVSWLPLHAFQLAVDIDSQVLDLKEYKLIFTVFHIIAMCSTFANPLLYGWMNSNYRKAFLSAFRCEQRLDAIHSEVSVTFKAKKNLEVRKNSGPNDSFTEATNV
Description: (§1) The NPY family of G-protein coupled receptors include Y1, Y2, Y4, and Y5 in humans and rats. […] Following agonist binding, the receptor-G protein complex activates a downstream intracellular signaling cascade which leads to inhibition of adenylate cyclase and a reduction in intracellular cAMP levels.
(§2) HEK-CNG cells stably expressing the human or rat Y1, Y2, Y4 or Y5 receptors (Codex Biosolutions) were used to characterize the functional potency of peptide agonists using the ActOne™ membrane potential dye kit (Codex Biosolutions). In addition to each NPY receptor, each cell line encodes a proprietary exogenous Cyclic Nucleotide-Gated (CNG) channel (Codex Biosolutions). The channel is activated by elevated intracellular levels of cAMP, resulting in ion flux and cell membrane depolarization which can be detected with a calcium sensitive dye or fluorescent membrane potential (MP) dye. Cells were carried in growth media containing 90% DMEM, 10% FBS, 250 mcg/mL G418 and 1 mcg/mL puromycin for no more than 15 passages.
(§3) Prior to testing, cells were counted and dispensed at 14,000 cells per well (Y1, Y4 and Y5) or 28,000 cells per well (Y2) into black 384 well Poly-D-Lysine plates at 20 mcL per well. Covered plates were then incubated at room temperature for 30 minutes followed by an overnight incubation at 37° C. in 5% C02. The following day, media was removed and wells were washed once with 40 mcL Dulbecco's phosphate buffered saline. […] Ten microliters of experimental peptide or peptide standard was added in triplicate to wells and incubated for 50 minutes at room temperature in the dark. Following this incubation step, plates were read again as before (final read).
(§4) NPY receptor activation, leading to a reduction in intracellular cAMP levels, is detected as a decrease in isoproteranol induced fluorescent signal. Peptide standard and experimental values were initially transformed in excel using the formula: final read/initial read. Transformed values were then normalized to receptor specific standard values (1×10−13 M minimum and 1×10−7 M maximum) using the formula: (test value−standard minavg)/(standard maxavg−standard minavg)*100. […] Normalized data was analyzed from triplicate tests and used to estimate the EC50 for each test peptide on each receptor. Data was fit in GraphPad Prism software (v8.2.1) using a 3-parameter logistic curve model: Y=Bottom+(Top−Bottom)/(1+10^((LogEC50−X))). EC50 values were converted to pEC50 values using the formula: pEC50=−Log(EC50).

human Y5 receptor = biological target: T2, human Y5 receptor (Homo sapiens, UniProt Q15761); test: as above; format: cell-based; settings: NPY5R pEC50, HEK-CNG cells; standard NPY; species (human or rat) not given
T2 sequence (Q15761 1-445): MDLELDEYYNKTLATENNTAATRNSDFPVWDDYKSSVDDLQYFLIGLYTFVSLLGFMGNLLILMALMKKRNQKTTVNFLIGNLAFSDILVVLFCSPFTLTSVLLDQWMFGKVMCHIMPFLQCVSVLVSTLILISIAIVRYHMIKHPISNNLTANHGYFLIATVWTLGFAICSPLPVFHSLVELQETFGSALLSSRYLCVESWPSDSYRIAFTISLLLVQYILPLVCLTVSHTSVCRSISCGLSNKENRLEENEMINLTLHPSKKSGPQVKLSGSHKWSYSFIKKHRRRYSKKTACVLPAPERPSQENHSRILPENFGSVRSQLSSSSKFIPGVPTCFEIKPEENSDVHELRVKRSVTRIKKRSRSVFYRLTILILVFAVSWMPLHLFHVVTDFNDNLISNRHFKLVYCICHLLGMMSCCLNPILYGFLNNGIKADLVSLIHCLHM
Description: as §1, §2, §3, §4

CC(C)C[C@H](NC(=O)[C@H](CC(=O)O)NC(=O)[C@H](CCCCN)NC(=O)[C@H](Cc1ccc(O)cc1)NC(=O)[C@H](Cc1ccc(O)cc1)NC(=O)[C@H](CCCNC(=N)N)NC(=O)[C@H](CC(N)=O)NC(=O)[C@H](Cc1c[nH]c2ccccc12)NC(=O)[C@H](CCC(=O)O)NC(=O)[C@H](CCCCN)NC(=O)[C@@H]1CCCN1C(=O)[C@H](CO)NC(=O)[C@H](C)NC(=O)[C@H](CC(=O)O)NC(=O)[C@H](CCCCN)NC(=O)CNC(=O)[C@@H]1CCCN1C(=O)[C@H](CCCCNC(=O)CC[C@H](NC(=O)CC[C@H](NC(=O)CCCCCCCCCCCCCCCCCCC(=O)O)C(=O)O)C(=O)O)NC(=O)[C@H](CCC(=O)O)NC(=O)[C@@H]1CCCN1C(=O)[C@H](CCCCN)NC(=O)[C@@H]1CCCN1)C(=O)N[C@@H](CCCNC(=N)N)C(=O)N[C@@H](Cc1c[nH]cn1)C(=O)N[C@@H](Cc1ccc(O)cc1)C(=O)N[C@@H](CC(C)C)C(=O)N[C@@H](CC(N)=O)C(=O)N[C@@H](Cc1c[nH]c2ccccc12)C(=O)N[C@@H](CC(C)C)C(=O)N[C@H](C(=O)N[C@@H](CCCNC(=N)N)C(=O)N[C@@H](CCC(N)=O)C(=O)N[C@@H](CCCNC(=N)N)C(=O)N[C@@H](Cc1ccccc1)C(N)=O)[C@@H](C)O [Compound A37] (H-PKPEK([γGlu-γGlu-C20 diacid])PGKDASPKEWNRYYKDLRHYLNWLTRQRF-NH2; N-terminus assumed)
pEC50 (human Y2 receptor): 10.80 | pEC50 (human Y5 receptor): 8.60

CC(C)C[C@H](NC(=O)[C@H](CC(=O)O)NC(=O)[C@H](CCCCN)NC(=O)[C@H](Cc1ccc(O)cc1)NC(=O)[C@H](Cc1ccc(O)cc1)NC(=O)[C@H](CCCNC(=N)N)NC(=O)[C@H](CC(N)=O)NC(=O)[C@H](Cc1c[nH]c2ccccc12)NC(=O)[C@H](CCC(=O)O)NC(=O)[C@H](CCCCN)NC(=O)[C@@H]1CCCN1C(=O)[C@H](CO)NC(=O)[C@H](C)NC(=O)[C@H](CC(=O)O)NC(=O)[C@H](CCC(=O)O)NC(=O)CNC(=O)[C@@H]1CCCN1C(=O)[C@H](CCCCNC(=O)CC[C@H](NC(=O)CC[C@H](NC(=O)CCCCCCCCCCCCCCCCCC(=O)O)C(=O)O)C(=O)O)NC(=O)[C@H](CCC(=O)O)NC(=O)[C@@H]1CCCN1C(=O)[C@H](CCCCN)NC(=O)[C@@H]1CCCN1)C(=O)N[C@@H](CCCNC(=N)N)C(=O)N[C@@H](Cc1c[nH]cn1)C(=O)N[C@@H](Cc1ccc(O)cc1)C(=O)N[C@@H](CC(C)C)C(=O)N[C@@H](CC(N)=O)C(=O)N[C@@H](Cc1c[nH]c2ccccc12)C(=O)N[C@@H](CC(C)C)C(=O)N[C@H](C(=O)N[C@@H](CCCNC(=N)N)C(=O)N[C@@H](CCC(N)=O)C(=O)N[C@@H](CCCNC(=N)N)C(=O)N[C@@H](Cc1ccccc1)C(N)=O)[C@@H](C)O [Compound A36]
pEC50 (human Y2 receptor): 10.90 | pEC50 (human Y5 receptor): 8.70

CC(C)C[C@H](NC(=O)[C@H](CC(=O)O)NC(=O)[C@H](CCCCN)NC(=O)[C@H](Cc1ccc(O)cc1)NC(=O)[C@H](Cc1ccc(O)cc1)NC(=O)[C@H](CCCNC(=N)N)NC(=O)[C@H](CC(N)=O)NC(=O)[C@H](Cc1c[nH]c2ccccc12)NC(=O)[C@H](CCC(=O)O)NC(=O)[C@H](CCCCN)NC(=O)[C@@H]1CCCN1C(=O)[C@H](CO)NC(=O)[C@H](C)NC(=O)[C@H](CC(=O)O)NC(=O)[C@H](CCCCN)NC(=O)CNC(=O)[C@@H]1CCCN1C(=O)[C@H](CCCCNC(=O)CC[C@H](NC(=O)CC[C@H](NC(=O)CCCCCCCCCCCCCCCCCCC(=O)O)C(=O)O)C(=O)O)NC(=O)[C@H](CCC(=O)O)NC(=O)[C@@H]1CCCN1C(=O)[C@H](CCCCN)NC(=O)[C@@H]1CCCN1)C(=O)N[C@@H](CCCNC(=N)N)C(=O)N[C@@H](Cc1c[nH]cn1)C(=O)N[C@@H](Cc1ccc(O)cc1)C(=O)N[C@@H](CC(C)C)C(=O)N[C@@H](CC(N)=O)C(=O)N[C@@H](Cc1c[nH]c2ccccc12)C(=O)N[C@@H](CC(C)C)C(=O)N[C@H](C(=O)N[C@@H](CCCNC(=N)N)C(=O)N[C@@H](CCC(N)=O)C(=O)N[C@@H](CCCNC(=N)N)C(=O)N[C@@H](Cc1ccccc1)C(N)=O)[C@@H](C)O [Compound A71] (H-PKPEK([γGlu-γGlu-C20 diacid])PGKDASPKEWNRYYKDLRHYLNWLTRQRF-NH2; N-terminus assumed)
pEC50 (human Y2 receptor): 10.70 | pEC50 (human Y5 receptor): 8.80

CC(C)C[C@H](NC(=O)[C@H](CC(=O)O)NC(=O)[C@H](CCCCN)NC(=O)[C@H](Cc1ccc(O)cc1)NC(=O)[C@H](Cc1ccc(O)cc1)NC(=O)[C@H](CCCNC(=N)N)NC(=O)[C@H](CO)NC(=O)[C@H](Cc1c[nH]c2ccccc12)NC(=O)[C@H](CCC(=O)O)NC(=O)[C@H](CCC(=O)O)NC(=O)[C@@H]1CCCN1C(=O)[C@H](CO)NC(=O)[C@H](C)NC(=O)[C@H](CC(=O)O)NC(=O)[C@H](CCCCNC(=O)CC[C@H](NC(=O)CC[C@H](NC(=O)CCCCCCCCCCCCCCCCCCC(=O)O)C(=O)O)C(=O)O)NC(=O)CNC(=O)[C@@H]1CCCN1C(=O)[C@H](CCCCN)NC(=O)[C@H](CCC(=O)O)NC(=O)[C@@H]1CCCN1C(=O)[C@H](CCCCN)NC(=O)[C@@H]1CCCN1)C(=O)N[C@@H](CCCNC(=N)N)C(=O)N[C@@H](Cc1c[nH]cn1)C(=O)N[C@@H](Cc1ccc(O)cc1)C(=O)N[C@@H](CC(C)C)C(=O)N[C@@H](CC(N)=O)C(=O)N[C@@H](Cc1c[nH]c2ccccc12)C(=O)N[C@@H](CC(C)C)C(=O)N[C@H](C(=O)N[C@@H](CCCNC(=N)N)C(=O)N[C@@H](CCC(N)=O)C(=O)N[C@@H](CCCNC(=N)N)C(=O)N[C@@H](Cc1ccccc1)C(N)=O)[C@@H](C)O [Compound A75]
pEC50 (human Y5 receptor): 9.30

CC(C)C[C@H](NC(=O)[C@H](CC(=O)O)NC(=O)[C@H](CCCCN)NC(=O)[C@H](Cc1ccc(O)cc1)NC(=O)[C@H](Cc1ccc(O)cc1)NC(=O)[C@H](CCCNC(=N)N)NC(=O)[C@H](CC(=O)O)NC(=O)[C@H](Cc1c[nH]c2ccccc12)NC(=O)[C@H](CCC(=O)O)NC(=O)[C@H](CCCCN)NC(=O)[C@@H]1CCCN1C(=O)[C@H](CO)NC(=O)[C@H](C)NC(=O)[C@H](CC(=O)O)NC(=O)[C@H](CCC(=O)O)NC(=O)CNC(=O)[C@@H]1CCCN1C(=O)[C@H](CCCCNC(=O)CC[C@H](NC(=O)CC[C@H](NC(=O)CCCCCCCCCCCCCCCCCCC(=O)O)C(=O)O)C(=O)O)NC(=O)[C@H](CCC(=O)O)NC(=O)[C@@H]1CCCN1C(=O)[C@H](CCCCN)NC(=O)[C@@H]1CCCN1)C(=O)N[C@@H](CCCNC(=N)N)C(=O)N[C@@H](Cc1c[nH]cn1)C(=O)N[C@@H](Cc1ccc(O)cc1)C(=O)N[C@@H](CC(C)C)C(=O)N[C@@H](CC(N)=O)C(=O)N[C@@H](Cc1c[nH]c2ccccc12)C(=O)N[C@@H](CC(C)C)C(=O)N[C@H](C(=O)N[C@@H](CCCNC(=N)N)C(=O)N[C@@H](CCC(N)=O)C(=O)N[C@@H](CCCNC(=N)N)C(=O)N[C@@H](Cc1ccccc1)C(N)=O)[C@@H](C)O [Compound A78]
pEC50 (human Y2 receptor): 10.20 | pEC50 (human Y5 receptor): 8.50
